Measurements published in US10781211B2, “Spirocycle compounds and methods of making and using same” (Lundbeck La Jolla Research Center, Inc., priority 2016, dated 2020).

Assays:
ABHD6 [1] = biological target: T1, ABHD6 (Mus musculus (Mouse), UniProt Q8R2Y0); assay: Mouse brain proteomes from inhibitor treated mice (oral gavage, sacrifice 4 h after administration, ABPP analysis), ABHD6; type: in vivo; conditions: 5 mg/kg oral gavage
Procedure, shortened: (§1)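 Wild-type C57Bl/6J mice; p.o. gavage, vehicle e.g. PEG400/EtOH/PBS 7/2/1; 5 mg/kg. Brain harvested 4 h post-dose, proteome profiled by ABPP. Read-out: % inhibition.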

MAGL [2] = biological target: T2, MAGL (Mus musculus (Mouse), UniProt O35678); assay: Mouse brain proteomes from inhibitor treated mice (oral gavage, sacrifice 4 h after administration, ABPP analysis); type: in vivo; conditions: 5 mg/kg oral gavage
T2 sequence (O35678 whole entry): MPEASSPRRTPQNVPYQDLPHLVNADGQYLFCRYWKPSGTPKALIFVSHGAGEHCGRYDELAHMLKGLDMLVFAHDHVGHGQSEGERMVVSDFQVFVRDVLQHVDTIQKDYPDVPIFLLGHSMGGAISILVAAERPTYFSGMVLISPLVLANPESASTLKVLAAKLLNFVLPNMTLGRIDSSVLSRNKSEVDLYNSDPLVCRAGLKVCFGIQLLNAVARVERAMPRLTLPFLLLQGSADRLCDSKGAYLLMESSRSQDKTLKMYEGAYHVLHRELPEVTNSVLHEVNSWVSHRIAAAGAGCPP
Procedure, shortened: as §1

MAGL [3] = biological target: T2, MAGL; assay: In vitro competitive activity-based protein profiling (mouse brain membrane proteome), MAGL band; type: biochemical; conditions: for inhibition at 1 µM: read-out: MAGL % Inh 1 μM (mouse)
Method: (§2) In Vitro Competitive Activity-Based Protein Profiling.
(§3) Proteomes (mouse brain membrane fraction or cell lysates) (50 μL, 1.0 mg/mL total protein concentration) were preincubated with varying concentrations of inhibitors at 37° C. After 30 min, FP-Rh (1.0 μL, 50 μM in DMSO) was added and the mixture was incubated for another 30 min at 37° C. Reactions were quenched with SDS loading buffer (50 μL-4X) and run on SDS-PAGE.

FAAH [4] = biological target: T3, FAAH (Mus musculus (Mouse), UniProt O08914); assay: Mouse brain proteomes from inhibitor treated mice (oral gavage, sacrifice 4 h after administration, ABPP analysis), FAAH; type: in vivo; conditions: 5 mg/kg oral gavage
T3 sequence (O08914 whole entry): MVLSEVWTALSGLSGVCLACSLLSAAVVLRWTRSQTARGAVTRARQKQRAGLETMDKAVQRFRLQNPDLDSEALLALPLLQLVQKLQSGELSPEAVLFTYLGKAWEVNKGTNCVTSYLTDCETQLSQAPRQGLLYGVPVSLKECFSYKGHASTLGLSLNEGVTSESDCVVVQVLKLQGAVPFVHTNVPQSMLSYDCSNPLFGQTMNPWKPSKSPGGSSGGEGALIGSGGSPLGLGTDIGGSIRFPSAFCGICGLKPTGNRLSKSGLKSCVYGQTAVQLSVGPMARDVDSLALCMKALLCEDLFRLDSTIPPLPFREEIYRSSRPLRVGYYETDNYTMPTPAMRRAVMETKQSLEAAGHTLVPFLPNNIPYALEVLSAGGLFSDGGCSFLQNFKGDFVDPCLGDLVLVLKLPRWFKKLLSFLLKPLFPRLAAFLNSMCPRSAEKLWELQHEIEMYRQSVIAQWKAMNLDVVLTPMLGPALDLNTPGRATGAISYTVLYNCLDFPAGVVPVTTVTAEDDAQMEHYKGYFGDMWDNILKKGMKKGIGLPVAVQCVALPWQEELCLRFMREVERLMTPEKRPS
Procedure, shortened: as §1

FAAH [5] = biological target: T3, FAAH; assay: In vitro competitive activity-based protein profiling (mouse brain membrane proteome), FAAH band; type: biochemical; conditions: for inhibition at 1 µM: read-out: FAAH % Inh 1 μM (mouse)
Method: as §2
as §3, with “SDS-PAGE. Following gel imaging, serine hydrolase activity was determined by measuring fluorescent intensity of gel bands corresponding to MAGL, ABHD6 and FAAH using ImageJ 1.43 u software.” for “SDS-PAGE.”

ABHD6 [6] = biological target: T1, ABHD6; assay: In vitro competitive activity-based protein profiling (mouse brain membrane proteome), ABHD6 band; type: biochemical; conditions: read-out: ABHD6 % Inh 1 μM (mouse)
Method: as §2
as §3, with “SDS-PAGE. Following gel imaging, serine hydrolase activity was determined by measuring fluorescent intensity of gel bands corresponding to MAGL, ABHD6 and FAAH using ImageJ 1.43 u software.” for “SDS-PAGE.”

MAGL [7] = biological target: MAGL (Homo sapiens (Human), UniProt Q99685); assay: In vitro competitive activity-based protein profiling (human prefrontal cortex or cell membrane fractions; hMAGL expressed in HEK293T cells); type: biochemical; conditions: human proteome
MAGL (Homo sapiens (Human), UniProt Q99685), sequence (Q99685 whole entry): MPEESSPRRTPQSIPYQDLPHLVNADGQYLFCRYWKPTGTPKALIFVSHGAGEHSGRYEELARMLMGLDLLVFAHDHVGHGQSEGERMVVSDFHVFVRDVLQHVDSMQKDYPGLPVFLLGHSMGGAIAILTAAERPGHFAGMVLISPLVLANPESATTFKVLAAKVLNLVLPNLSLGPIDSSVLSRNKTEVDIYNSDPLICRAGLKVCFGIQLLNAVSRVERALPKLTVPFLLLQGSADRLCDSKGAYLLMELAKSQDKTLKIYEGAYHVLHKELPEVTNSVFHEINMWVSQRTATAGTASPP
Method: In Vitro Competitive Activity-Based Protein Profiling (Human).
Proteomes (human prefrontal cortex or cell membrane fractions) (50 μL, 1.0-2.0 mg/mL total protein concentration) were preincubated with varying concentrations of inhibitors at 37° C. After 30 min, FP-Rh or JW912 (1.0 μL, 50 μM in DMSO) was added and the mixture was incubated for another 30 min at room temperature. Reactions were quenched with SDS loading buffer (15 μL-4X) and run on SDS-PAGE.
Recombinant Expression of Human MAGL in HEK293T Cells.
Cell lysates were diluted with mock proteomes for use in competitive ABPP experiments.

T1 sequence (Q8R2Y0 whole entry): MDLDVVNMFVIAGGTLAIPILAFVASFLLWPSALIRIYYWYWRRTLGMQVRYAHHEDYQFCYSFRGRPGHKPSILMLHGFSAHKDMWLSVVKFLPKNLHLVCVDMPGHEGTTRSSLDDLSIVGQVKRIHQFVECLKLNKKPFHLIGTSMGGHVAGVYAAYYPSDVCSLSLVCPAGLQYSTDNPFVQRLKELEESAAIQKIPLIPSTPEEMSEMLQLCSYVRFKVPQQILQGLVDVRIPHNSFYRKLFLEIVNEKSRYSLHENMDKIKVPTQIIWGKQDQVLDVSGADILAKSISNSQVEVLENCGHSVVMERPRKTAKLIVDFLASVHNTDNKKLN

Structure (SMILES) | ABHD6 % Inh 5 mg/kg (mouse) (ABHD6 [1]) | MAGL % Inh 5 mg/kg (mouse) (MAGL [2]) | IC50 (MAGL [3]) [nM] | FAAH % Inh 5 mg/kg (mouse) (FAAH [4]) | IC50 (FAAH [5]) [nM] | inhibition at 1 µM (ABHD6 [6]) [%] | inhibition at 1 µM (FAAH [5]) [%] | inhibition at 1 µM (MAGL [3]) [%] | IC50 (MAGL [7]) [nM]
CC(=O)N1CCCc2cccc(CN3CCC4(CCN(C(=O)OC(C(F)(F)F)C(F)(F)F)CC4)C3)c21 [Example 70, 1,1,1,3,3,3-Hexafluoropropan-2-yl 2-((1-acetyl-1,2,3,4-tetrahydroquinolin-8-yl)methyl)-2,8-diazaspiro[4.5]decane-8-carboxylate] | ### (### is ≥ 75%) | ### (### is ≥ 75%) | < 100 | # (# is < 25%) | > 1000 |  |  |  | 
O=C(O)C1CCN(c2cc(F)ccc2CN2CCCC23CCN(C(=O)OC(C(F)(F)F)C(F)(F)F)CC3)CC1 [Example 235] |  |  |  |  |  | < 25 | < 25 |  | 
O=C(O)C1CCCCN1c1cc(CN2CCCC23CCN(C(=O)OC(C(F)(F)F)C(F)(F)F)CC3)cc(C(F)(F)F)c1 (stereo not drawn) [Example 226] | # (# is < 25%) | ### (### is ≥ 75%) |  | # (# is < 25%) |  | < 25 | < 25 | > 75 | < 100
CC1(C(=O)O)CCN(c2cc(CN3CCCC34CCN(C(=O)OC(C(F)(F)F)C(F)(F)F)CC4)cc(C(F)(F)F)c2)C1 (stereo not drawn) [Example 231] |  |  |  |  |  | < 25 | < 25 | > 75 | < 100
O=C(O)C1CCN(Cc2cc(CN3CCCC34CCN(C(=O)OC(C(F)(F)F)C(F)(F)F)CC4)cc(C(F)(F)F)c2)CC1 [Example 244] | # (# is < 25%) | ### (### is ≥ 75%) |  | # (# is < 25%) |  |  |  |  | 
Cc1c(CN2CCCC23CCN(C(=O)OC(C(F)(F)F)C(F)(F)F)CC3)cccc1N1CC2CCC(C1)O2 [Example 86, 1,1,1,3,3,3-Hexafluoropropan-2-yl 1-(3-(8-oxa-3-azabicyclo[3.2.1]octan-3-yl)-2-methylbenzyl)-1,8-diazaspiro[4.5]decane-8-carboxylate] | # (# is < 25%) | ### (### is ≥ 75%) |  | # (# is < 25%) |  |  |  |  | 
Cc1c(CN2CCCC23CCN(C(=O)OC(C(F)(F)F)C(F)(F)F)CC3)cccc1N1CCCCC1 [Example 84, 1,1,1,3,3,3-Hexafluoropropan-2-yl 1-(2-methyl-3-(piperidin-1-yl)benzyl)-1,8-diazaspiro[4.5]decane-8-carboxylate] | # (# is < 25%) | ### (### is ≥ 75%) |  | # (# is < 25%) |  |  |  |  | 
O=C(OC(C(F)(F)F)C(F)(F)F)N1CCC2(CCCN2Cc2ccc(C(F)(F)F)cc2N2CCC2)CC1 [Example 96, 1,1,1,3,3,3-Hexafluoropropan-2-yl 1-(2-(azetidin-1-yl)-4-(trifluoromethyl)benzyl)-1,8-diazaspiro[4.5]decane-8-carboxylate] | # (# is < 25%) | ### (### is ≥ 75%) |  | # (# is < 25%) |  |  |  |  | 
O=C(OC(C(F)(F)F)C(F)(F)F)N1CCC2(CCCN2Cc2cc(Oc3nc4ccccc4s3)cc(C(F)(F)F)c2)CC1 [Example 172, 1,1,1,3,3,3-Hexafluoropropan-2-yl 1-(3-(benzo[d]thiazol-2-yloxy)-5-(trifluoromethyl)benzyl)-1,8-diazaspiro[4.5]decane-8-carboxylate] | # (# is < 25%) | # (# is < 25%) |  | # (# is < 25%) |  |  |  |  | 
O=C(O)C1CCN(c2cc(F)cc(CN3CCCC34CCN(C(=O)OC(C(F)(F)F)C(F)(F)F)CC4)c2)CC1 [Example 236] | # (# is < 25%) | ### (### is ≥ 75%) |  | # (# is < 25%) |  |  |  |  | 
COc1cccc(CN2CCCC23CCN(C(=O)OC(C(F)(F)F)C(F)(F)F)CC3)c1Cl [Example 7, 1,1,1,3,3,3-Hexafluoropropan-2-yl 1-(2-chloro-3-methoxybenzyl)-1,8-diazaspiro[4.5]decane-8-carboxylate] | # (# is < 25%) | ### (### is ≥ 75%) |  | ### (### is ≥ 75%) |  |  |  |  | 
